target: Glycogen synthase kinase-3 (Sus scrofa, UniProt B2LUN4+I6LNT8); test: Inhibition of porcine brain GSK-3alpha/beta using YRRAAVPPSPSLSRHSSPHQpSEDEEE as substrate incubated for 30 mins in presence of ATP by scintillation counting method; format: tissue-based; conditions: not given

Row | Structure (SMILES) | IC50
1 | CN1C(=O)/C(=C/c2ccc3c(c2)OCO3)N=C1Nc1ccccc1 | 750 nM
2 | CN1CCN(c2ccc(NC3=N/C(=C\C4=COc5ccccc5O4)C(=O)N3)cc2)CC1 | 120 nM
3 | O=C1NC(Nc2ccccc2)=NC1Cc1ccc2c(c1)OCO2 (stereo unspecified) | > 10000 nM

target: Dual specificity protein kinase CLK3 (Mus musculus, UniProt O35492); test: Inhibition of GST-fused mouse recombinant CLK3 expressed in Escherichia coli using GRSRSRSRSRSR peptide as substrate incubated for 30 mins in presence of ATP by scintillation counting method; conditions: not given
Sequence (O35492 whole entry, the tested form may be a part): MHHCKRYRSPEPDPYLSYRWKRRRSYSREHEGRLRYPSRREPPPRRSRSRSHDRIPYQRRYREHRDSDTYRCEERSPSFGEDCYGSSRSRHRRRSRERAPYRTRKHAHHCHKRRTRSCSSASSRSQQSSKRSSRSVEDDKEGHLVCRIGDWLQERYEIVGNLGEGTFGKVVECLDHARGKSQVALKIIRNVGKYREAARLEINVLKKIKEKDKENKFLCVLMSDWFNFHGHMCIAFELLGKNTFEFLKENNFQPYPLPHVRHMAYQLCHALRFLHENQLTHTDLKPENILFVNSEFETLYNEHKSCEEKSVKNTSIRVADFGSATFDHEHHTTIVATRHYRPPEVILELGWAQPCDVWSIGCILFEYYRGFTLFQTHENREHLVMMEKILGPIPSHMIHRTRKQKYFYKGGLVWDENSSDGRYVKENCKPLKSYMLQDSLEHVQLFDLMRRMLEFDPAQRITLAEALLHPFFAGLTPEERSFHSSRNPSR

Row | Structure (SMILES) | IC50
4 | CN1C(=O)/C(=C/c2ccc3c(c2)OCO3)N=C1Nc1ccccc1 | 1400 nM
5 | CN1CCN(c2ccc(NC3=N/C(=C\C4=COc5ccccc5O4)C(=O)N3)cc2)CC1 | 1100 nM
6 | O=C1NC(Nc2ccccc2)=NC1Cc1ccc2c(c1)OCO2 (stereo unspecified) | > 10000 nM

target: T1, Dual specificity tyrosine-phosphorylation-regulated kinase 3 (Homo sapiens, UniProt O43781); test: Inhibition of GST-fused human recombinant DYRK3 expressed in Escherichia coli using GRSRSRSRSRSR peptide as substrate incubated for 30 mins in presence of ATP by scintillation counting method; conditions: not given
T1 sequence (O43781 whole entry): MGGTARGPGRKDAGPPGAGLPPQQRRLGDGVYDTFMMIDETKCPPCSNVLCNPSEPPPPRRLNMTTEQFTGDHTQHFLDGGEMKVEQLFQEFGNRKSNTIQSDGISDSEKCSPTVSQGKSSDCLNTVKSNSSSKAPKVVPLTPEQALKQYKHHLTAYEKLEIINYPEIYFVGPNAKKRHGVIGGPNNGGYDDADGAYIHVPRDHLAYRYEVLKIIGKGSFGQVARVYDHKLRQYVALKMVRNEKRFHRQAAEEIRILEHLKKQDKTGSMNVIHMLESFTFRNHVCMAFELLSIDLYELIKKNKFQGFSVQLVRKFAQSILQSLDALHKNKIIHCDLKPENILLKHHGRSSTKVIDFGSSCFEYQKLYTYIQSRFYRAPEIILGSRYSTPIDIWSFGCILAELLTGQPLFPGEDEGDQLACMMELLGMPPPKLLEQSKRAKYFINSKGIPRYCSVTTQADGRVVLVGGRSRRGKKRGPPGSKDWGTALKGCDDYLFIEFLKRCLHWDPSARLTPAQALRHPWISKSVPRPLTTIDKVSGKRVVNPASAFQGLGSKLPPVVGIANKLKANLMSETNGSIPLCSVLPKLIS

Row | Structure (SMILES) | IC50
7 | CN1C(=O)/C(=C/c2ccc3c(c2)OCO3)N=C1Nc1ccccc1 | 870 nM
8 | CN1CCN(c2ccc(NC3=N/C(=C\C4=COc5ccccc5O4)C(=O)N3)cc2)CC1 | 14 nM
9 | O=C1NC(Nc2ccccc2)=NC1Cc1ccc2c(c1)OCO2 (stereo unspecified) | > 10000 nM

system: HT-22; test: Modulation of CLK1 pre-mRNA splicing in mouse HT-22 cells assessed as inclusion of CLK1 exon 4 by measuring change in threshold cycle at 10 uM measured after 4 hrs by real time PCR analysis; format: cell-based; conditions: filed as modulator

Row | Structure (SMILES) | deltaCT
10 | CN1C(=O)/C(=C/c2ccc3c(c2)OCO3)N=C1Nc1ccccc1 | 4.42

system: not listed separately; test: Neurotoxicity against mouse HT-22 cells assessed as cell survival at 20 uM treated for 24 hrs by MTS assay; format: toxicity, cell-based; conditions: ht-22, 24 h

Row | Structure (SMILES) | Activity
11 | CN1C(=O)/C(=C/c2ccc3c(c2)OCO3)N=C1Nc1ccccc1 | Non-Toxic

target: Dual specificity tyrosine-phosphorylation-regulated kinase 1B (Homo sapiens, UniProt Q9Y463); conditions: not given
Sequence (Q9Y463 whole entry): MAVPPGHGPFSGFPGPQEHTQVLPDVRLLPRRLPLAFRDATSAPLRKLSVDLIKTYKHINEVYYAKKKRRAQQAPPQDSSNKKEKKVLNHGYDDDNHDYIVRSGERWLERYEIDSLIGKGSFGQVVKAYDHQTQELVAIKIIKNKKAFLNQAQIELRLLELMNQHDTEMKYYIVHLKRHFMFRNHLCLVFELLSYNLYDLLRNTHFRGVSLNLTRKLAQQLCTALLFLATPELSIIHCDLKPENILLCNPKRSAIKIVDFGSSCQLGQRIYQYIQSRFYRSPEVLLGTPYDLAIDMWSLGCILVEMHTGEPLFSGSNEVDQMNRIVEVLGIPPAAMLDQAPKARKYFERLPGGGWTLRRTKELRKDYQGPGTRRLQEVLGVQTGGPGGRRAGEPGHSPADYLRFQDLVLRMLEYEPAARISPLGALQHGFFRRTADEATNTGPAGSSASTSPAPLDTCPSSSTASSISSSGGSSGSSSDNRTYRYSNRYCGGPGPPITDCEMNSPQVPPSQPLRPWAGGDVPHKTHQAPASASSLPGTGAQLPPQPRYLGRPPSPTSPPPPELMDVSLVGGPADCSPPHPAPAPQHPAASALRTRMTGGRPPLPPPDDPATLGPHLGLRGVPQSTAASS

Row | Structure (SMILES) | IC50
12 | CN1C(=O)/C(=C/c2ccc3c(c2)OCO3)N=C1Nc1ccccc1 | 3200 nM
13 | CN1CCN(c2ccc(NC3=N/C(=C\C4=COc5ccccc5O4)C(=O)N3)cc2)CC1 | 20 nM
14 | O=C1NC(Nc2ccccc2)=NC1Cc1ccc2c(c1)OCO2 (stereo unspecified) | > 10000 nM

target: Serine/threonine-protein kinase pim-1 (Homo sapiens, UniProt P11309); test: Inhibition of human recombinant Pim1 expressed in Escherichia coli using histone H1 as substrate incubated for 30 mins in presence of ATP by scintillation counting method; conditions: not given
Sequence (P11309 whole entry): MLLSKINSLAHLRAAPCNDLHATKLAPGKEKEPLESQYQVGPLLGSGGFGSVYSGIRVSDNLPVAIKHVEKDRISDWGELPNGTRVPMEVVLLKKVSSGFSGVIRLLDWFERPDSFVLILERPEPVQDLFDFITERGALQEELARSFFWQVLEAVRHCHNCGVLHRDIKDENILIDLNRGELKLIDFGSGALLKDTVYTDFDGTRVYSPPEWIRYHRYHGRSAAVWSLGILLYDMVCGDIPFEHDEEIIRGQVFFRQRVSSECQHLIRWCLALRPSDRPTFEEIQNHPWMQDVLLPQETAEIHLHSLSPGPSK

Row | Structure (SMILES) | IC50
15 | CN1C(=O)/C(=C/c2ccc3c(c2)OCO3)N=C1Nc1ccccc1 | ≥ 10000 nM
16 | CN1CCN(c2ccc(NC3=N/C(=C\C4=COc5ccccc5O4)C(=O)N3)cc2)CC1 | 510 nM

target: Dual specificity protein kinase CLK1 (Mus musculus, UniProt P22518); test: Inhibition of GST-fused mouse recombinant CLK1 expressed in Escherichia coli using GRSRSRSRSRSR peptide as substrate incubated for 30 mins in presence of ATP by scintillation counting method; conditions: not given
Sequence (P22518 whole entry, the tested form may be a part): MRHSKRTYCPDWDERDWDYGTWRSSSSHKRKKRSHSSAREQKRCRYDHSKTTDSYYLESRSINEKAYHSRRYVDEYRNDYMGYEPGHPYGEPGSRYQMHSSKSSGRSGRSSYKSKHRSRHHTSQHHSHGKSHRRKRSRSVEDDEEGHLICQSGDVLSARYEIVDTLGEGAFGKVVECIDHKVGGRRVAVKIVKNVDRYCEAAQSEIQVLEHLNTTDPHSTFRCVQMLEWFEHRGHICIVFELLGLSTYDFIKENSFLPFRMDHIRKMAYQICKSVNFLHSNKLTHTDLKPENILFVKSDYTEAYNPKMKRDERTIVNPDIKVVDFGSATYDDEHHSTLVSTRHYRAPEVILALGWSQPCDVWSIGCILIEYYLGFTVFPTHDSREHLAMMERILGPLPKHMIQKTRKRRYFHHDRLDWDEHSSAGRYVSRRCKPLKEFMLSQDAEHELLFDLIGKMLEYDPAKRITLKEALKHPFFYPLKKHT

Row | Structure (SMILES) | IC50
17 | CN1C(=O)/C(=C/c2ccc3c(c2)OCO3)N=C1Nc1ccccc1 | 140 nM
18 | CN1CCN(c2ccc(NC3=N/C(=C\C4=COc5ccccc5O4)C(=O)N3)cc2)CC1 | 17 nM
19 | O=C1NC(Nc2ccccc2)=NC1Cc1ccc2c(c1)OCO2 (stereo unspecified) | 6270 nM

target: T2, Dual specificity tyrosine-phosphorylation-regulated kinase 2 (Homo sapiens, UniProt Q92630); test: Inhibition of GST-fused human recombinant DYRK2 expressed in Escherichia coli using GRSRSRSRSRSR peptide as substrate incubated for 30 mins in presence of ATP by scintillation counting method; conditions: not given
T2 sequence (Q92630 whole entry): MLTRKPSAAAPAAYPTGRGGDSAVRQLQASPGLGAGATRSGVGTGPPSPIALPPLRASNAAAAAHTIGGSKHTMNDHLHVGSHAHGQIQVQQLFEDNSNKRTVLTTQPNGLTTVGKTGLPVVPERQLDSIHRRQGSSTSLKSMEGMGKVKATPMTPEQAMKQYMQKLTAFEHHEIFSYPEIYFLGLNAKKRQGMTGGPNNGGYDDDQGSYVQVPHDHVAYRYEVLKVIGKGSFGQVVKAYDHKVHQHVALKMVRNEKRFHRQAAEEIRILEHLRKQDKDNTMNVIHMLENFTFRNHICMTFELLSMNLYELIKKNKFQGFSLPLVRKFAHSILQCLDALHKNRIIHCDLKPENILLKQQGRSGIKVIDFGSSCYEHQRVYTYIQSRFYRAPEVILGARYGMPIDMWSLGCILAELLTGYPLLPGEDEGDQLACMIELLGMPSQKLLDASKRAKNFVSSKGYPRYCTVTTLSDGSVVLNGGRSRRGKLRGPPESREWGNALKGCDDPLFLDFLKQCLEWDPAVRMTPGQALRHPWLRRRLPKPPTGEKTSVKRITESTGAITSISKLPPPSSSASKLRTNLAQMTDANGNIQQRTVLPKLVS

Row | Structure (SMILES) | IC50
20 | CN1C(=O)/C(=C/c2ccc3c(c2)OCO3)N=C1Nc1ccccc1 | 80 nM
21 | CN1CCN(c2ccc(NC3=N/C(=C\C4=COc5ccccc5O4)C(=O)N3)cc2)CC1 | 8 nM
22 | O=C1NC(Nc2ccccc2)=NC1Cc1ccc2c(c1)OCO2 (stereo unspecified) | > 10000 nM

target: Dual specificity protein kinase CLK4 (Mus musculus, UniProt O35493); test: Inhibition of GST-fused mouse recombinant CLK4 expressed in Escherichia coli using GRSRSRSRSRSR peptide as substrate incubated for 30 mins in presence of ATP by scintillation counting method; conditions: not given
Sequence (O35493 whole entry, the tested form may be a part): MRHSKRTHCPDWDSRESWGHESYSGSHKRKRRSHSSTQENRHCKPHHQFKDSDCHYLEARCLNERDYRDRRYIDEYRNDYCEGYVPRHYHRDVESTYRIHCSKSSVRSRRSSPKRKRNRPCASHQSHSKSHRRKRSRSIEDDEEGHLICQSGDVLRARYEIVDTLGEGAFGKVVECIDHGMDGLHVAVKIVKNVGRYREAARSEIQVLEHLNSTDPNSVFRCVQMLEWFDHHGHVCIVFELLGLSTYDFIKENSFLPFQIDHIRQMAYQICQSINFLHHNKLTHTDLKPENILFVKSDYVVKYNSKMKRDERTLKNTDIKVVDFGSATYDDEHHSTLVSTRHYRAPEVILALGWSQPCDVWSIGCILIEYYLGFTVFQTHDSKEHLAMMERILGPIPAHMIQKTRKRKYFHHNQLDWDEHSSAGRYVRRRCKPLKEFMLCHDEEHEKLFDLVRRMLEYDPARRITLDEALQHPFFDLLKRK

Row | Structure (SMILES) | IC50
23 | CN1C(=O)/C(=C/c2ccc3c(c2)OCO3)N=C1Nc1ccccc1 | 110 nM
24 | CN1CCN(c2ccc(NC3=N/C(=C\C4=COc5ccccc5O4)C(=O)N3)cc2)CC1 | 19 nM
25 | O=C1NC(Nc2ccccc2)=NC1Cc1ccc2c(c1)OCO2 (stereo unspecified) | 5600 nM

target: Casein kinase 2 (Homo sapiens, UniProt P67870+P68400+P19784+Q8NEV1); test: Inhibition of human recombinant CK2 using RRRDDDSDDD peptide as substrate incubated for 30 mins in presence of ATP by scintillation counting method; format: protein assay; conditions: not given

Row | Structure (SMILES) | IC50
26 | CN1C(=O)/C(=C/c2ccc3c(c2)OCO3)N=C1Nc1ccccc1 | > 10000 nM
27 | CN1CCN(c2ccc(NC3=N/C(=C\C4=COc5ccccc5O4)C(=O)N3)cc2)CC1 | 450 nM

system: HT-22; test: Neuroprotective activity against glutamate-induced cell death in mouse HT-22 cells treated for 24 hrs by MTS assay; format: functional, cell-based; conditions: HT-22, 24 h

Row | Structure (SMILES) | EC50
28 | CN1C(=O)/C(=C/c2ccc3c(c2)OCO3)N=C1Nc1ccccc1 | 14000 nM
29 | CN1CCN(c2ccc(NC3=N/C(=C\C4=COc5ccccc5O4)C(=O)N3)cc2)CC1 | 12000 nM

target: Cannabinoid receptor 1 (Homo sapiens, UniProt P21554); test: Antagonist activity at CP-55940-activated CB1 receptor (unknown origin) at 10 uM by beta-arrestin assay relative to control; format: functional; design: scale not given: the % may be the effect or the level left; conditions: not given
Sequence (P21554 whole entry): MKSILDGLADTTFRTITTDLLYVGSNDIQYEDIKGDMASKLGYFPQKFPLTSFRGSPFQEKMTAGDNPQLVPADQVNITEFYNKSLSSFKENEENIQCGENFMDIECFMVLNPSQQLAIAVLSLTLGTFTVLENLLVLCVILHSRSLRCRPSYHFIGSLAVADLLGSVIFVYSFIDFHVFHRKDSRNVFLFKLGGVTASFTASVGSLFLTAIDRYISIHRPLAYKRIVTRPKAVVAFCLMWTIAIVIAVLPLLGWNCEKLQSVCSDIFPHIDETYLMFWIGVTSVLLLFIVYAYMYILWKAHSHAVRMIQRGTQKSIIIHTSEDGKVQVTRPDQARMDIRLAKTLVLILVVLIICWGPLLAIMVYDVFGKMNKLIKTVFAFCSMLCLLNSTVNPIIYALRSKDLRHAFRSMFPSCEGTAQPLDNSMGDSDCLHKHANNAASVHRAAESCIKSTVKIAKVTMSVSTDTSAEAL

Row | Structure (SMILES) | Activity
30 | CN1C(=O)/C(=C/c2ccc3c(c2)OCO3)N=C1Nc1ccccc1 | -5.5%
31 | CN1CCN(c2ccc(NC3=N/C(=C\C4=COc5ccccc5O4)C(=O)N3)cc2)CC1 | -1.4%

system: U2OS; test: Induction of PI3K/mTor-dependent autophagy in human U2OS cells assessed as number of LC3 foci per cell at 10 uM measured after 4 hrs; format: cell-based; conditions: filed as activator

Row | Structure (SMILES) | Activity
32 | CN1C(=O)/C(=C/c2ccc3c(c2)OCO3)N=C1Nc1ccccc1 | 7.9
33 | CN1CCN(c2ccc(NC3=N/C(=C\C4=COc5ccccc5O4)C(=O)N3)cc2)CC1 | 22

system: not listed separately; test: Neurotoxicity against mouse HT-22 cells assessed as cell survival treated for 24 hrs by MTS assay; format: toxicity, cell-based; conditions: not given

Row | Structure (SMILES) | IC50 at 24 h | EC50 at 24 h
34 | CN1CCN(c2ccc(NC3=N/C(=C\C4=COc5ccccc5O4)C(=O)N3)cc2)CC1 | > 20000 nM | –
35 | O=C1NC(Nc2ccccc2)=NC1Cc1ccc2c(c1)OCO2 (stereo unspecified) | – | > 20000 nM

target: Dual specificity protein kinase CLK2 (Mus musculus, UniProt O35491); test: Inhibition of mouse recombinant GST-fused CLK2 expressed in Escherichia coli using GRSRSRSRSRSR peptide as substrate incubated for 30 mins in presence of ATP by scintillation counting method; conditions: not given
Sequence (O35491 whole entry, the tested form may be a part): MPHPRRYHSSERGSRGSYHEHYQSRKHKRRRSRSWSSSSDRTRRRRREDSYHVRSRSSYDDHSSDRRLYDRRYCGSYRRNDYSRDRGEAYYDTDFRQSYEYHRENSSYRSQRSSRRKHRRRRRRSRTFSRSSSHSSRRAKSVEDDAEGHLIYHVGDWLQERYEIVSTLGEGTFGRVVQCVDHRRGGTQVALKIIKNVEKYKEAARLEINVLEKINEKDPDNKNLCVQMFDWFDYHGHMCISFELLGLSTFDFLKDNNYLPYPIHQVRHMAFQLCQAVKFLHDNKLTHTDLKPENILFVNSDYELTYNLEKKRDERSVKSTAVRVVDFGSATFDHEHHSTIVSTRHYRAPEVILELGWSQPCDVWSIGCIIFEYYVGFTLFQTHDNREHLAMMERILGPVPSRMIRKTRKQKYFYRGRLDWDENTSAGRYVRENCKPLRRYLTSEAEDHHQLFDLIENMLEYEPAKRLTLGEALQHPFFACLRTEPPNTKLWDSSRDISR

Row | Structure (SMILES) | IC50
36 | CN1C(=O)/C(=C/c2ccc3c(c2)OCO3)N=C1Nc1ccccc1 | 500 nM
37 | CN1CCN(c2ccc(NC3=N/C(=C\C4=COc5ccccc5O4)C(=O)N3)cc2)CC1 | 67 nM
38 | O=C1NC(Nc2ccccc2)=NC1Cc1ccc2c(c1)OCO2 (stereo unspecified) | > 10000 nM

target: Dual specificity tyrosine-phosphorylation-regulated kinase 1A (Homo sapiens, UniProt Q13627); test: Inhibition of GST-fused human recombinant DYRK1A expressed in Escherichia coli using GRSRSRSRSRSR peptide as substrate incubated for 30 mins in presence of ATP by scintillation counting method; conditions: not given

Row | Structure (SMILES) | IC50
39 | CN1C(=O)/C(=C/c2ccc3c(c2)OCO3)N=C1Nc1ccccc1 | 93 nM
40 | CN1CCN(c2ccc(NC3=N/C(=C\C4=COc5ccccc5O4)C(=O)N3)cc2)CC1 | 7 nM
41 | O=C1NC(Nc2ccccc2)=NC1Cc1ccc2c(c1)OCO2 (stereo unspecified) | 5100 nM
